Values of other authors in patent US20150024042A1 (POZEN INC., priority 2011, published 2015).

Legend:
[1] = in vivo
[2] = 95% CI 0.84 to 0.98
[3] = repeated oral doses of 75 mg clopidogrel (base)

## COC(=O)[C@H](c1ccccc1Cl)N1CCc2sccc2C1 [clopidogrel]
[1]
  gastrointestinal hemorrhage, incidence: 2.0 % annually
[2]
  cardiovascular events compared with aspirin, OR: 0.91
[3]
  time of peak plasma levels of the main circulating metabolite after dosing: approximately one
